Read-outs that look alike come from different tables or passages of the source.

The conditions of this data set: for release profile: versus control, FIG. 12. On the procedure: Two layers of dialysis tubing (Thermo-Fisher, Waltham, Mass.) were cut to fit across the opening at the joint of the Franz cell. For control measurements, 500 μL of a 1.3 mg/mL solution of nicotine in D.I. water was pipetted into the top of the cell. Samples were removed from the receptor cell at various time points as indicated in the graph in FIG. 12.
Subsequent experiments added small amounts of polymer-coated carbon nanoparticles between the two layers of dialysis tubing. The overall coverage was approximated by taking a photograph of the combined double layer nanoparticle sandwich from the top and assessing the darkness of the layer. […] For approximately 35% coverage [circles] and for full (100%) coverage [triangles], a sample of 500 μL of a 1.3 mg/mL solution of nicotine in D.I. water was pipetted into the top of the cell and samples were removed at various time points.

Take `CN1CCCC1c1cccnc1` (stereo not drawn) [nicotine]: the release profile entry is, setting by setting: (approximately 35% coverage with polymer-coated carbon nanoparticles between two layers of dialysis tubing) “very similar to the control”; (full (100%) coverage with polymer-coated carbon nanoparticles between two layers of dialysis tubing) “sizeable difference”. Besides, the “reduction in the total nicotine delivered over 24 hours” value (full (100%) coverage with polymer-coated carbon nanoparticles between two layers of dialysis tubing, versus control without particles, 500 μL of 1.3 mg/mL nicotine in D.I. water) is on record as 50%.

Values taken from patent US10646454B2, “Microcell delivery systems including charged or magnetic particles for regulating rate of administration of actives” (E INK CALIFORNIA, LLC, priority 2017, dated 2020).
